The target of assay [1] is Cyclin-dependent kinase 2/cyclin E (Homo sapiens, UniProt P24941). Kind of assay: Inhibition of Cdk2/cyclinE. The format is protein-complex assay.
Assay [2] deals with Cyclin-dependent kinase 2/cyclin A (Homo sapiens, UniProt P24941). Put plainly: Inhibition of recombinant Cdk2/cyclinA. The format is protein-complex assay.
The nature of assay [3]: Growth inhibition of human HeLaS3 cells. As to conditions: HeLa S3. It counts as functional.

Where only a bound is given, the exact number is not on record here.

For orientation: IC50 means the concentration that gives 50% inhibition. The GI50 is the concentration that inhibits growth by half. Read a high GI50 as less potent growth inhibition. As to `CC(C)n1cnc2c(NCc3ccc(-c4ccccc4)cn3)nc(N[C@H]3CC[C@H](N)CC3)nc21`, the IC50 stood at 0.4 µM in assay [1] and 0.5 µM in assay [2]. Growth in assay [3] was halved (GI50) at 0.5 µM.

With `CC(C)n1cnc2c(NCc3ccc(-c4ccccc4F)s3)nc(N[C@H]3CC[C@H](N)CC3)nc21`, the figures for the half-maximal inhibitory concentration (IC50) in assay [1] and in assay [2] were 0.08 µM and 0.4 µM, respectively. For the same compound, the GI50 in assay [3] was 0.3 µM.

As to `CC(C)n1cnc2c(NCc3ccc(-c4ccccc4)nc3)nc(N[C@H]3CC[C@H](N)CC3)nc21`, the IC50 in assay [1] is 0.04 µM; in assay [2] it was 0.1 µM. In assay [3], the GI50 is 0.071 µM.

Turning to `CC(C)n1cnc2c(NCc3ccc(-c4ccccn4)cc3)nc(N[C@H]3CC[C@H](N)CC3)nc21`, the half-inhibitory concentration (IC50) worked out at 0.1 µM in assay [1] and 0.2 µM in assay [2]. The same compound gave a concentration for 50% growth inhibition (GI50) in assay [3] of 0.044 µM.

With `CC(C)n1cnc2c(NCc3ccc(-c4cccs4)cc3)nc(N[C@H]3CC[C@H](N)CC3)nc21`, the IC50 worked out at 0.09 µM in assay [1] and 0.1 µM in assay [2]. The compound further returned a concentration for 50% growth inhibition (GI50) in assay [3] of 0.048 µM.

Regarding `CC(C)n1cnc2c(NCc3ccc(-n4cccn4)nc3)nc(N[C@H]3CC[C@H](N)CC3)nc21`, the IC50 came to 0.05 µM in assay [1] and 0.07 µM in assay [2]. In addition, growth in assay [3] was halved (GI50) at 0.02 µM.

Regarding `CC(C)n1cnc2c(NCc3coc(-c4ccccc4)c3)nc(N[C@H]3CC[C@H](N)CC3)nc21`, the values for the IC50 in assay [1] and in assay [2] were 0.15 µM and 0.3 µM, respectively. In assay [3], this compound displayed a 50% growth inhibitory concentration (GI50) of 0.33 µM.

Take `CC(C)n1cnc2c(NCc3csc(-c4ccccc4)n3)nc(N[C@H]3CC[C@H](N)CC3)nc21`: the IC50 in assay [1] was determined as 0.4 µM; in assay [2] it was 0.7 µM. In addition, in assay [3], growth was halved (GI50) at 4 µM.

With `CC(C)n1cnc2c(NCc3ccc(-c4cccs4)s3)nc(N[C@H]3CC[C@H](N)CC3)nc21`, the results for the IC50 in assay [1] and in assay [2] were 0.055 µM and 0.14 µM, respectively. The compound further had a GI50 in assay [3] of 0.3 µM.

As for `Cc1csc(-c2ccc(CNc3nc(N[C@H]4CC[C@H](N)CC4)nc4c3ncn4C(C)C)cc2)c1`, the IC50 in assay [1] is 0.2 µM; in assay [2], 0.5 µM. In assay [3], it took 0.4 µM to inhibit growth by half (GI50).

Take `CC(C)n1cnc2c(NCc3ccc(-c4cccnc4)cc3)nc(N[C@H]3CC[C@H](N)CC3)nc21`: the IC50 in assay [1] turned out to be 0.07 µM; in assay [2], 0.3 µM. The compound further registered a concentration for 50% growth inhibition (GI50) in assay [3] of 0.14 µM.

In the case of `CC(C)n1cnc2c(NCc3ccc(-c4cccnc4)s3)nc(N[C@H]3CC[C@H](N)CC3)nc21`, the IC50 in assay [1] stood at 0.1 µM; in assay [2], 0.2 µM. This compound also displayed a GI50 in assay [3] of 0.2 µM.

As for `CC(C)n1cnc2c(NCc3ccc(-c4ccccn4)nc3)nc(N[C@H]3CC[C@H](N)CC3)nc21`, the 50% inhibitory concentration (IC50) in assay [1] came to 0.03 µM; in assay [2], 0.09 µM. The same compound displayed a 50% growth inhibitory concentration (GI50) in assay [3] of 0.31 µM.

As to `CC(C)n1cnc2c(NCc3cnc(-c4ccccc4)s3)nc(N[C@H]3CC[C@H](N)CC3)nc21`, the IC50 in assay [1] and in assay [2] was below 0.05 µM throughout. The compound further had a GI50 in assay [3] of 0.2 µM.

Take `CC(C)n1cnc2c(NCc3ccc(-c4ccsc4)s3)nc(N[C@H]3CC[C@H](N)CC3)nc21`: the figures for the 50% inhibitory concentration (IC50) in assay [1] and in assay [2] were 0.2 µM and 0.3 µM, respectively. Growth in assay [3] was halved (GI50) at 0.15 µM.

In the case of `CC(C)n1cnc2c(NCc3ccc(-n4cccn4)cc3)nc(N[C@H]3CC[C@H](N)CC3)nc21`, the IC50 in assay [1] turned out to be 0.95 µM; in assay [2], 0.14 µM. The compound further gave a GI50 in assay [3] of 0.17 µM.

In the case of `CC(C)n1cnc2c(NCc3ccc(-c4cccc(F)c4)s3)nc(N[C@H]3CC[C@H](N)CC3)nc21`, the IC50 in assay [1] is 0.09 µM; in assay [2], 0.25 µM. Growth in assay [3] was halved (GI50) at 0.19 µM.

Regarding `CC(C)n1cnc2c(NCc3ccc(-c4ccsc4)nc3)nc(N[C@H]3CC[C@H](N)CC3)nc21`, the values for the IC50 in assay [1] and in assay [2] were below 0.03 µM and 0.1 µM, respectively. Besides, halving of growth in assay [3] (GI50) required 0.027 µM.

Take `CC(C)n1cnc2c(NCc3ccc(-n4cccc4)cc3)nc(N[C@H]3CC[C@H](N)CC3)nc21`: the 50% inhibitory concentration (IC50) in assay [1] and in assay [2] was 0.2 µM each time. This compound also yielded a GI50 in assay [3] of 0.02 µM.

As for `CC(C)n1cnc2c(NCc3ccc(-c4ccc(F)cc4)s3)nc(N[C@H]3CC[C@H](N)CC3)nc21`, the values for the half-maximal inhibitory concentration (IC50) in assay [1] and in assay [2] were 0.3 µM and 0.5 µM, respectively. In assay [3], this compound came in with a GI50 of 0.39 µM.

With `Cc1ccc(-c2ccc(CNc3nc(N[C@H]4CC[C@H](N)CC4)nc4c3ncn4C(C)C)cc2)s1`, the results for the IC50 in assay [1] and in assay [2] were 0.2 µM and 0.6 µM, respectively. The same compound registered a GI50 in assay [3] of 0.4 µM.

Regarding `CC(C)n1cnc2c(NCc3ccc(-c4ccccn4)s3)nc(N[C@H]3CC[C@H](N)CC3)nc21`, the IC50 in assay [1] came out at 0.044 µM; in assay [2], 1.5 µM. The GI50 in assay [3] was determined as 0.27 µM.

For the compound `CC(C)n1cnc2c(NCc3ccc(-c4cccs4)nc3)nc(N[C@H]3CC[C@H](N)CC3)nc21`, the half-inhibitory concentration (IC50) in assay [2] came to 0.9 µM. Moreover, in assay [3], the GI50 was 0.098 µM.

Regarding `CC(C)n1cnc2c(NCc3ccc(-c4cccc(F)c4)nc3)nc(N[C@H]3CC[C@H](N)CC3)nc21`, the IC50 was 0.04 µM in assay [1] and 0.08 µM in assay [2]. The compound also gave a concentration for 50% growth inhibition (GI50) in assay [3] of 0.016 µM.

In the case of `COc1cccc(-c2ccc(CNc3nc(N[C@H]4CC[C@H](N)CC4)nc4c3ncn4C(C)C)s2)c1`, the results for the IC50 in assay [1] and in assay [2] were 0.1 µM and 0.3 µM, respectively. The GI50 in assay [3] was 0.16 µM.

On to `CC(C)n1cnc2c(NCc3ccc(-c4ccsc4)cc3)nc(N[C@H]3CC[C@H](N)CC3)nc21`, for which the IC50 worked out at 0.2 µM in assay [1] and 0.4 µM in assay [2]. For the same compound, the GI50 in assay [3] came out at 0.04 µM.

Take `CC(C)n1cnc2c(NCc3csc(-c4ccccc4)c3)nc(N[C@H]3CC[C@H](N)CC3)nc21`: the figures for the half-maximal inhibitory concentration (IC50) in assay [1] and in assay [2] were 0.085 µM and 0.25 µM, respectively. This compound yielded a concentration for 50% growth inhibition (GI50) in assay [3] of 0.37 µM.

Turning to `CC(C)n1cnc2c(NCc3ccc(-c4ccccc4)cc3)nc(N[C@H]3CC[C@H](N)CC3)nc21`, the IC50 in assay [1] is 0.1 µM; in assay [2], 0.4 µM.

With `CC(C)n1cnc2c(NCc3ccc(-c4ccoc4)s3)nc(N[C@H]3CC[C@H](N)CC3)nc21`, the IC50 in assay [1] turned out to be 0.2 µM; in assay [2] it was 0.6 µM. This compound also came in with a concentration for 50% growth inhibition (GI50) in assay [3] of 2 µM.

For `Cc1cccc(-c2ccc(CNc3nc(N[C@H]4CC[C@H](N)CC4)nc4c3ncn4C(C)C)s2)c1`, the IC50 in assay [1] is 0.2 µM; in assay [2], 0.7 µM. In addition, in assay [3], growth was halved (GI50) at 0.2 µM.

Regarding `CC(C)n1cnc2c(NCc3ccc(-c4ccc(Cl)s4)cc3)nc(N[C@H]3CC[C@H](N)CC3)nc21`, the half-maximal inhibitory concentration (IC50) was determined as 0.3 µM in assay [1] and 0.4 µM in assay [2]. Besides, the GI50 in assay [3] stood at 0.38 µM.

As to `Cc1csc(-c2ccc(CNc3nc(N[C@H]4CC[C@H](N)CC4)nc4c3ncn4C(C)C)s2)n1`, in assay [2], the concentration for half-maximal inhibition (IC50) came to 0.1 µM. Also, halving of growth in assay [3] (GI50) required 0.04 µM.

Consider `CC(C)n1cnc2c(NCc3ccc(-c4ccco4)cc3)nc(N[C@H]3CC[C@H](N)CC3)nc21`, for which the results for the IC50 in assay [1] and in assay [2] were 0.09 µM and 0.15 µM, respectively. Further, in assay [3], the GI50 was 0.03 µM.

Regarding `CC(C)n1cnc2c(NCc3ccc(-c4ccco4)s3)nc(N[C@H]3CC[C@H](N)CC3)nc21`, the IC50 in assay [1] was found to be 0.1 µM; in assay [2] it was 0.2 µM. In assay [3], the concentration for 50% growth inhibition (GI50) was found to be 0.3 µM.

Take `CC[C@H](CO)Nc1nc(NCc2ccccc2)c2ncn(C(C)C)c2n1` [SELICICLIB]: in assay [3], the 50% growth inhibitory concentration (GI50) turned out to be 20 µM.
